From patent publication US7816346B2, “Analogs of ansamycin and pharmaceutical compositions thereof” (priority 2006, dated 2010)
Read-outs that look alike come from different tables or passages of the source.

What was measured:
[1] = system: MX-1 (human breast carcinoma) cells; assay: in vitro growth inhibition, cytotoxicity assay (Promega CellTiter Blue Cell Viability Assay); assay type: cell-based; details: read-out: IC50, μM MX-1
Protocol: After 24 hrs., cells were exposed to various concentrations of compound in DMSO and cultured for another 72 hrs. 100 ul of media were removed and 20 ul of Promega CellTiter Blue reagent were added to each well and shaken to mix. […] The fluorescence produced is proportional to the number of viable cells. After plotting fluorescence produced against drug concentration, the IC50 was calculated as the […] of the resulting non-linear regression.

[2] = cited from earlier work
[3] = system: HSV-1; details: cited from earlier work
[4] = system: cellular growth; details: read-out: concentration that inhibited cellular growth 50% in comparison with untreated controls; cited from earlier work
[5] = MX-1 cells, 72 hrs exposure, CellTiter Blue

| Molecule | IC50 [1, 5] [µM] | other results |
| --- | --- | --- |
| 18-N-(2-Furo)amide-21-hydroxylgeldanamycin [Compound 10] | 7.2 | – |
| 18-N-(2-Trifluoro)benzamide-21-hydroxylgeldanamycin [Compound 4] | 0.68 | – |
| 18-N-(3,4-Dichloro)benzamide-21-hydroxylgeldanamycin [Compound 9] | 0.8 | – |
| 18-N-(3,4-Dichloro)benzamide-21-methoxylgeldanamycin [Compound 70] | 12.4 | – |
| 18-N-(4-Cyano)benzamide-21-hydroxylgeldanamycin [Compound 7] | 0.13 | – |
| 18-N-(4-Fluoro)benzamide-21-hydroxylgeldanamycin [Compound 8] | 2 | – |
| 18-N-(4-Methoxy)benzamide-21-hydroxylgeldanamycin [Compound 5] | 0.29 | – |
| 18-N-(4-Nitro)benzamide-21-hydroxylgeldanamycin [Compound 3] | 0.42 | – |
| 18-N-(4-Phenyl)benzamide-21-hydroxylgeldanamycin [Compound 6] | 0.081 | – |
| 18-N-Benzamide-21-hydroxylgeldanamycin [Compound 1] | 1.9 | – |
| 18-N-Benzylcarbamate-21-hydroxylgeldanamycin [Compound 16] | 0.088 | – |
| 18-N-Benzylurea-21-hydroxylgeldanamycin [Compound 49] | 2.4 | – |
| 18-N-Lauramide-21-hydroxylgeldanamycin [Compound 2] | 1.3 | – |
| 18-N-iso-Nicotinamide-21-hydroxylgeldanamycin [Compound 11] | 0.1 | – |
| C=CC(=O)Nc1cc2c(O)c(c1OC)CC(C)CC(OC)C(O)C(C)C=C(C)C(OC(N)=O)C(OC)C=CC=C(C)C(=O)N2 (centres unmarked) [Compound 12, 18-N-Acrylamide-21-hydroxylgeldanamycin] | 15.3 | – |
| C=CCNC1=C2C[C@@H](C)C[C@H](OC)[C@H](O)[C@@H](C)/C=C(\C)[C@H](OC(N)=O)[C@@H](OC)/C=C\C=C(/C)C(=O)NC(=CC1=O)C2=O [Compound 17-AAG, 17-allylaminogeldanamycin, reference compound] | – | IC50 ([1]; Homo sapiens, MX1, 72 h): 1.7 µM; water solubility [2]: limited aqueous solubility |
| COc1c(NS(=O)(=O)c2ccc(C(F)(F)F)cc2)cc2c(O)c1CC(C)CC(OC)C(O)C(C)C=C(C)C(OC(N)=O)C(OC)C=CC=C(C)C(=O)N2 (centres unmarked) [Compound 29, 18-N-(4-trifluoromethylbenzene)sulfamide-21-hydroxylgeldanamycin] | 0.078 | – |
| COC1=C2C[C@@H](C)C[C@H](OC)[C@H](O)[C@@H](C)/C=C(\C)[C@H](OC(N)=O)[C@@H](OC)/C=C\C=C(/C)C(=O)NC(=CC1=O)C2=O [GA, Geldanamycin] | – | IC50 ([1]; Homo sapiens, MX1, MX-1 cells, 72 hrs exposure, CellTiter Blue): 0.5 µM; therapeutic index ([3]; cellular growth vs HSV-1 replication): over 3700; IC50 ([3]; in vitro, read-out: 50% inhibitory concentration, HSV-1 replication in vitro): 93 nM; IC50 [4]: 350000 nM; water solubility [2]: poor water solubility |
